Key:
Assay in all cases: KINOMEscan competition binding
Conditions in all cases: compound 10.0 µM
CAMK1G (human) = CAMK1G (human) (UniProt Q96NX5)
MAP3K10 (human) = MAP3K10 (human) (UniProt Q02779)
MAP4K4 (human) = MAP4K4 (human) (UniProt O95819)
STK33 (human) = STK33 (human) (UniProt Q9BYT3)
PAK6 (human) = PAK6 (human) (UniProt Q9NQU5)
CDKL3 (human) = CDKL3 (human) (UniProt Q8IVW4)
ERBB4 (human) = ERBB4 (human) (UniProt Q15303)
PRKD1 (human) = PRKD1 (human) (UniProt Q15139)
STK4 (human) = STK4 (human) (UniProt Q13043)
EPHB2 (human) = EPHB2 (human) (UniProt P29323)
PAK2 (human) = PAK2 (human) (UniProt Q13177)
[1] = target: TYK2 JH1 catalytic (human) (UniProt P29597)
ZAP70 (human) = ZAP70 (human) (UniProt P43403)
MARK3 (human) = MARK3 (human) (UniProt P27448)
PAK3 (human) = PAK3 (human) (UniProt O75914)
HCK (human) = HCK (human) (UniProt P08631)
STK24 (human) = STK24 (human) (UniProt Q9Y6E0)
CAMKK2 (human) = CAMKK2 (human) (UniProt Q96RR4)
CDKL2 (human) = CDKL2 (human) (UniProt Q92772)
PRKACB (human) = PRKACB (human) (UniProt P22694)
ACVR1 (human) = ACVR1 (human) (UniProt Q04771)
MLTK (human) = MLTK (human) (UniProt Q9NYL2)
RIPK1 (human) = RIPK1 (human) (UniProt Q13546)
CSNK1D (human) = CSNK1D (human) (UniProt P48730)
RPS6KA1 KD1 (human) = RPS6KA1 KD1 (human) (UniProt Q15418)
MAP3K12 (human) = MAP3K12 (human) (UniProt Q12852)
MAP4K2 (human) = MAP4K2 (human) (UniProt Q12851)
ACVR2B (human) = ACVR2B (human) (UniProt Q13705)
NEK3 (human) = NEK3 (human) (UniProt P51956)
LTK (human) = LTK (human) (UniProt P29376)
CLK4 (human) = CLK4 (human) (UniProt Q9HAZ1)
MAPK13 (human) = MAPK13 (human) (UniProt O15264)
IKBKE (human) = IKBKE (human) (UniProt Q14164)
MAPK9 (human) = MAPK9 (human) (UniProt P45984)
IRAK3 (human) = IRAK3 (human) (UniProt Q9Y616)
PI4KB (human) = PI4KB (human) (UniProt Q9UBF8)
RPS6KA4 KD2 (human) = RPS6KA4 KD2 (human) (UniProt O75676)
[2] = target: JAK1 JH2 pseudokinase (human) (UniProt P23458)
NEK4 (human) = NEK4 (human) (UniProt P51957)
CHEK2 (human) = CHEK2 (human) (UniProt O96017)

Chain of IKBKE (human) (Q14164 whole entry, looked up): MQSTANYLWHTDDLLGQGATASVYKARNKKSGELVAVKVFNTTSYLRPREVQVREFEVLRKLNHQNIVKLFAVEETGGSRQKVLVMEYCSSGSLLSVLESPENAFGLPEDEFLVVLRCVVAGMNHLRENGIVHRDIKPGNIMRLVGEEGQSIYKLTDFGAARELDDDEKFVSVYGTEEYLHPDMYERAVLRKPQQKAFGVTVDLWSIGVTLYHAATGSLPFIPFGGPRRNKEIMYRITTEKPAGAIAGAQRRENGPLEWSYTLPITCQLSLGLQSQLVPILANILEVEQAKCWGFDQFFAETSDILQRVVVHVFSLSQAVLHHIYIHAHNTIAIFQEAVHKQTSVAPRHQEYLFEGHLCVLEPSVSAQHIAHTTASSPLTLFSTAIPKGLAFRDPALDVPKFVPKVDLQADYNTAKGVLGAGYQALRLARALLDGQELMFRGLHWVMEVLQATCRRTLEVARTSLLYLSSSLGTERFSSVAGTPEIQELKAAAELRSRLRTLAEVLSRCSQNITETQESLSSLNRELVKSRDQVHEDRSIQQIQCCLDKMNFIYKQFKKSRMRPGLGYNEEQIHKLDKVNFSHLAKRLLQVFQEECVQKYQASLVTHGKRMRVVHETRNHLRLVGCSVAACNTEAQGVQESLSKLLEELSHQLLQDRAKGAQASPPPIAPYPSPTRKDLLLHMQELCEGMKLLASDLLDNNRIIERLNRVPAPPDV
Chain of PAK2 (human) (Q13177 whole entry, looked up): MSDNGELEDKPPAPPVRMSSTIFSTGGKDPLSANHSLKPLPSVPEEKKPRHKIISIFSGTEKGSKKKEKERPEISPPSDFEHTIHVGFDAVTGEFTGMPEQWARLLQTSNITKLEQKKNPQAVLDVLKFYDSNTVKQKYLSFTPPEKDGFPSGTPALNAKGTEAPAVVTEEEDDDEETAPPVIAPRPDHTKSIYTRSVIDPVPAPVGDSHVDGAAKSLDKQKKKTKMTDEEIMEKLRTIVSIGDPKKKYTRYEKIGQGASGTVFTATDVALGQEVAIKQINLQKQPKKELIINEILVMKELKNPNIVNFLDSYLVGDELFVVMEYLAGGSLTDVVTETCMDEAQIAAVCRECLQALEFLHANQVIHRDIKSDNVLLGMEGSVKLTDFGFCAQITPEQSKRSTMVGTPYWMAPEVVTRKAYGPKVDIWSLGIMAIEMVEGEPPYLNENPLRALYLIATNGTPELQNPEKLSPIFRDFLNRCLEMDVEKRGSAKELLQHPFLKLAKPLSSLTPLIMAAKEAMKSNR
Chain of MAPK13 (human) (O15264 whole entry, looked up): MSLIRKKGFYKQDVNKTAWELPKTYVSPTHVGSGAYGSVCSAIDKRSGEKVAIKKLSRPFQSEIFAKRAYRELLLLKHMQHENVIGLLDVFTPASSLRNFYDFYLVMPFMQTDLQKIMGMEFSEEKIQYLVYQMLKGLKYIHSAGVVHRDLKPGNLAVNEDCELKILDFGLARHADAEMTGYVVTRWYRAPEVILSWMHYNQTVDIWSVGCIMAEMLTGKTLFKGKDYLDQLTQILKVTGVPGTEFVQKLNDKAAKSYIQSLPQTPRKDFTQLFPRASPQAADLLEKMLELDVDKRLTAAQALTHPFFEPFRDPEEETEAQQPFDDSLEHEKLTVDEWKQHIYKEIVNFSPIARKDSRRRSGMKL
Chain of CAMK1G (human) (Q96NX5 whole entry, looked up): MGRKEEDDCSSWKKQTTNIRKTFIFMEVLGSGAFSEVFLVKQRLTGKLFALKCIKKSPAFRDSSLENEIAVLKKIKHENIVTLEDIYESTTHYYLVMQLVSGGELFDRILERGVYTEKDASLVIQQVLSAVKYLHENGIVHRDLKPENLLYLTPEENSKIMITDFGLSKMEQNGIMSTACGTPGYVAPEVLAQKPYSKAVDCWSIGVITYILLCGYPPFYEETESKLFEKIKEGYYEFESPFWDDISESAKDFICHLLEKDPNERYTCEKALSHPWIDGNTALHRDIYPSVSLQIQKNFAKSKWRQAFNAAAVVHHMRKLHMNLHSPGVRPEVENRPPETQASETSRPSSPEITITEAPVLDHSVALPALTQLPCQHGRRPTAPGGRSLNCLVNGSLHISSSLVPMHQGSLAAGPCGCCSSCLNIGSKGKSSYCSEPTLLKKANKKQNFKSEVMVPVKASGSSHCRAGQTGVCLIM
Chain of LTK (human) (P29376 whole entry, looked up): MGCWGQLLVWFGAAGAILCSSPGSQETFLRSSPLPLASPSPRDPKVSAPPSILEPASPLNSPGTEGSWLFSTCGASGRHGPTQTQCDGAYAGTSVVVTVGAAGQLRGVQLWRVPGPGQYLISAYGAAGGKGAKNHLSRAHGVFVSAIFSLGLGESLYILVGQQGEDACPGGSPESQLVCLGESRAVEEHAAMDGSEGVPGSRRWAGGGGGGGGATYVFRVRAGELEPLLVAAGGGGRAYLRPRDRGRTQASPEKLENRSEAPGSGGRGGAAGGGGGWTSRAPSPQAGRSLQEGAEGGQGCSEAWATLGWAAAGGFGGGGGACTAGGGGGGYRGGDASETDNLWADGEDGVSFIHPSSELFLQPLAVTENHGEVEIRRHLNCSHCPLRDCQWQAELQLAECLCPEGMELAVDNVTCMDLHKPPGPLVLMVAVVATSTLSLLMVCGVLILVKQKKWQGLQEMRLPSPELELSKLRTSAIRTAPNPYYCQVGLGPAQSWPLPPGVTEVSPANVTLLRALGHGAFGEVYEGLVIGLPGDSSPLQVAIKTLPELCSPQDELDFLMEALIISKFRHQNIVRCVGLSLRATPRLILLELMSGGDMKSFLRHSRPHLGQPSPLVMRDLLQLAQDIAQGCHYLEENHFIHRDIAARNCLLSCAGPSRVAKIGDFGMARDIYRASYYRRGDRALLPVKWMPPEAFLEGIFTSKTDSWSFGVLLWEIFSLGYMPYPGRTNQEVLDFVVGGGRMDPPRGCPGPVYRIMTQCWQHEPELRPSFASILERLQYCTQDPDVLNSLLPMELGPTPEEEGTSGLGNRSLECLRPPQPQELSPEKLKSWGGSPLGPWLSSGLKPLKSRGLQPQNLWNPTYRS
Chain of PRKD1 (human) (Q15139 whole entry, looked up): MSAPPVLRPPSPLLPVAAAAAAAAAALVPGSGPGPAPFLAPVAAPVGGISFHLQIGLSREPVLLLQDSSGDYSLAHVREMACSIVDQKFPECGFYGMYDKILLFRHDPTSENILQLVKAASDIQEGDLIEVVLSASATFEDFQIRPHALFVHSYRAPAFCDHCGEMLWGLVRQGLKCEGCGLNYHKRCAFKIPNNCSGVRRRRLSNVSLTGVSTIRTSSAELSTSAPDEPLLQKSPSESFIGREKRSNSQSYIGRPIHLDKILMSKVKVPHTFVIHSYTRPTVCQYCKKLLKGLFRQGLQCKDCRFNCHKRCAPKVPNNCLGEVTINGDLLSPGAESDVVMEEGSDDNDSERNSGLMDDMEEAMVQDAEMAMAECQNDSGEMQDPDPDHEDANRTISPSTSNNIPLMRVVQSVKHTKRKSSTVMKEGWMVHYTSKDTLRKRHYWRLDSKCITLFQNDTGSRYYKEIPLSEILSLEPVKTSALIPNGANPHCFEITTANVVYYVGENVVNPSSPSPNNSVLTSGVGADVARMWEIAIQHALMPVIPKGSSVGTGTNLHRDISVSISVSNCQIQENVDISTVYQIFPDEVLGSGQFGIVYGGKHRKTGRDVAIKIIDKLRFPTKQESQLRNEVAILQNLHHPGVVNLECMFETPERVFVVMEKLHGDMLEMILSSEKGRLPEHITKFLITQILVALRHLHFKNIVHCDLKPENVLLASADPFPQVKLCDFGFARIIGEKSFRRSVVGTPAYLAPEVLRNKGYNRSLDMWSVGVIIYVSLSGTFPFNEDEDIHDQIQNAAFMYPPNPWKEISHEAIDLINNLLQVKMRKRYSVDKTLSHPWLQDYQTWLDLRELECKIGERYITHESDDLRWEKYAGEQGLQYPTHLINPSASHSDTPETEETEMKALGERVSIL
Chain of IRAK3 (human) (Q9Y616 whole entry, looked up): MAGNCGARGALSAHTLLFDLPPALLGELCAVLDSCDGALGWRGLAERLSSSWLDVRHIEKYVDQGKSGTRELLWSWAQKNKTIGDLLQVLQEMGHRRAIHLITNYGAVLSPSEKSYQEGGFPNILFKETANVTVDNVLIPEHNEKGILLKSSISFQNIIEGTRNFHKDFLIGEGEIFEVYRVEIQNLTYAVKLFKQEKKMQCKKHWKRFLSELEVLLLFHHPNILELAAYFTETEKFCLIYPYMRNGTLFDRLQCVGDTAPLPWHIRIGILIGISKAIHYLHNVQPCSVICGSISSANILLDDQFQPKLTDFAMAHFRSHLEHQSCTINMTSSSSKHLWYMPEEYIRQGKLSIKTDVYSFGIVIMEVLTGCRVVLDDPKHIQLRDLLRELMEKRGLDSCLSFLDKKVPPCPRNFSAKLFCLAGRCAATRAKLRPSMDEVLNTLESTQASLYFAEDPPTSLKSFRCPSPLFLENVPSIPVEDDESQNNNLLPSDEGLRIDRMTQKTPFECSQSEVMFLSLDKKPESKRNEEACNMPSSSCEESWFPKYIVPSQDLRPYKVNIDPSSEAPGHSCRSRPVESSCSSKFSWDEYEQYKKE
Chain of ACVR2B (human) (Q13705 whole entry, looked up): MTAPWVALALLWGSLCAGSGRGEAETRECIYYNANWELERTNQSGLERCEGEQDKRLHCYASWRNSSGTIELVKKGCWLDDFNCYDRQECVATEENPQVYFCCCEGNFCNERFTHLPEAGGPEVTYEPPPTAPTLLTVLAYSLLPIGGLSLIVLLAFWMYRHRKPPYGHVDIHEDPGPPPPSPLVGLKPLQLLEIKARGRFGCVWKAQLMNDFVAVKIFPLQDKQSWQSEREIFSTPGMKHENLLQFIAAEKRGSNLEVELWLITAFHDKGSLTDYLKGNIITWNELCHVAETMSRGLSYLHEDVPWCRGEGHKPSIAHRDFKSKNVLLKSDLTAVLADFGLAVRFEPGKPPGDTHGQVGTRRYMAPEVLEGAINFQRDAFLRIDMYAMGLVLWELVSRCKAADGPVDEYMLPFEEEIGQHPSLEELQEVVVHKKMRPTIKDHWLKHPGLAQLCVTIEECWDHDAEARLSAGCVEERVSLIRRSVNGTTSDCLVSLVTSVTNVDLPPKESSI

SMILES | kinase still bound, per cent of control (CAMK1G (human)) [%] | kinase still bound, per cent of control (MAP3K10 (human)) [%] | kinase still bound, per cent of control (MAP4K4 (human)) [%] | kinase still bound, per cent of control (PAK6 (human)) [%] | kinase still bound, per cent of control (CDKL3 (human)) [%] | kinase still bound, per cent of control (ERBB4 (human)) [%] | kinase still bound, per cent of control (PRKD1 (human)) [%] | kinase still bound, per cent of control (STK4 (human)) [%] | kinase still bound, per cent of control (EPHB2 (human)) [%] | kinase still bound, per cent of control (PAK2 (human)) [%] | kinase still bound, per cent of control [1] [%] | kinase still bound, per cent of control (ZAP70 (human)) [%] | kinase still bound, per cent of control (MARK3 (human)) [%] | kinase still bound, per cent of control (PAK3 (human)) [%] | kinase still bound, per cent of control (STK24 (human)) [%] | kinase still bound, per cent of control (CAMKK2 (human)) [%] | kinase still bound, per cent of control (CDKL2 (human)) [%] | kinase still bound, per cent of control (PRKACB (human)) [%] | kinase still bound, per cent of control (ACVR1 (human)) [%] | kinase still bound, per cent of control (MLTK (human)) [%] | other results
COc1cc(C(=O)N2CCC(N3CCN(C)CC3)CC2)ccc1Nc1ncc2c(n1)N(C)c1ccccc1C(=O)N2C | 74 | 100 | 85 | 98 | 83 | 100 | 28 | 100 | 100 | 65 | 52 | 79 | 98 | 83 | 87 | 31 | 100 | 100 | 98 | 99 | kinase still bound, per cent of control (STK33 (human)): 10%; kinase still bound, per cent of control (HCK (human)): 100%; kinase still bound, per cent of control (RIPK1 (human)): 99%; kinase still bound, per cent of control (CSNK1D (human)): 81%; kinase still bound, per cent of control (RPS6KA1 KD1 (human)): 73%; kinase still bound, per cent of control (MAP3K12 (human)): 81%; kinase still bound, per cent of control (MAP4K2 (human)): 100%; kinase still bound, per cent of control (ACVR2B (human)): 100%; kinase still bound, per cent of control (NEK3 (human)): 100%; kinase still bound, per cent of control (LTK (human)): 32%; kinase still bound, per cent of control (CLK4 (human)): 54%; kinase still bound, per cent of control (MAPK13 (human)): 72%; kinase still bound, per cent of control (IKBKE (human)): 96%; kinase still bound, per cent of control (MAPK9 (human)): 94%; kinase still bound, per cent of control (IRAK3 (human)): 100%; kinase still bound, per cent of control (PI4KB (human)): 95%; kinase still bound, per cent of control (RPS6KA4 KD2 (human)): 46%; kinase still bound, per cent of control [2]: 92%; kinase still bound, per cent of control (NEK4 (human)): 95%; kinase still bound, per cent of control (CHEK2 (human)): 66%
COc1cc2ncn(-c3cc(OCc4ccccc4C(F)(F)F)c(C(N)=O)s3)c2cc1OC | 72 | 98 | 53 | 94 | 100 | 80 | 100 | 56 | 94 | 96 | 59 | 95 | 78 | 77 | 87 | 44 | 90 | 100 | 60 | 74 | kinase still bound, per cent of control (STK33 (human)): 67%; kinase still bound, per cent of control (HCK (human)): 72%; kinase still bound, per cent of control (RIPK1 (human)): 74%; kinase still bound, per cent of control (CSNK1D (human)): 81%; kinase still bound, per cent of control (RPS6KA1 KD1 (human)): 96%; kinase still bound, per cent of control (MAP3K12 (human)): 68%; kinase still bound, per cent of control (MAP4K2 (human)): 53%; kinase still bound, per cent of control (ACVR2B (human)): 58%; kinase still bound, per cent of control (NEK3 (human)): 100%; kinase still bound, per cent of control (LTK (human)): 100%; kinase still bound, per cent of control (CLK4 (human)): 45%; kinase still bound, per cent of control (MAPK13 (human)): 100%; kinase still bound, per cent of control (IKBKE (human)): 60%; kinase still bound, per cent of control (MAPK9 (human)): 78%; kinase still bound, per cent of control (IRAK3 (human)): 67%; kinase still bound, per cent of control (PI4KB (human)): 100%; kinase still bound, per cent of control (RPS6KA4 KD2 (human)): 70%; kinase still bound, per cent of control [2]: 100%; kinase still bound, per cent of control (NEK4 (human)): 52%; kinase still bound, per cent of control (CHEK2 (human)): 100%
COCC(=O)NC/C=C/c1ccc2ncnc(Nc3ccc(Oc4ccc(C)nc4)c(C)c3)c2c1 | 96 | 100 | 97 | 89 | 100 | 0.9 | 85 | 87 | 100 | 87 | 100 | 100 | 100 | 70 | 90 | 85 | 91 | 100 | 90 | 76 | kinase still bound, per cent of control (RIPK1 (human)): 100%; kinase still bound, per cent of control (CSNK1D (human)): 90%; kinase still bound, per cent of control (RPS6KA1 KD1 (human)): 100%; kinase still bound, per cent of control (MAP3K12 (human)): 92%; kinase still bound, per cent of control (MAP4K2 (human)): 100%; kinase still bound, per cent of control (ACVR2B (human)): 100%; kinase still bound, per cent of control (NEK3 (human)): 95%; kinase still bound, per cent of control (LTK (human)): 88%; kinase still bound, per cent of control (CLK4 (human)): 100%; kinase still bound, per cent of control (MAPK13 (human)): 100%; kinase still bound, per cent of control (IKBKE (human)): 100%; kinase still bound, per cent of control (MAPK9 (human)): 53%; kinase still bound, per cent of control (IRAK3 (human)): 82%; kinase still bound, per cent of control (PI4KB (human)): 100%; kinase still bound, per cent of control (RPS6KA4 KD2 (human)): 100%; kinase still bound, per cent of control (NEK4 (human)): 100%; kinase still bound, per cent of control (CHEK2 (human)): 55%

— the kinase profiling compilation of Christmann-Franck et al. (2016)
